In US11629171B2, “Beta-hairpin peptidomimetics” (POLYPHOR AG, priority 2017, dated 2023):
≈ marks a conversion by molar mass, not a printed value. Where a SMILES comes first, the peptide text is derived from it. Bridges are numbered along the chain shown (N, C = ends). Roman numbers before positions name the chains, in order. [ ]: non-standard residue; d: D form. dDab = NCC[C@@H](N)C(=O)O; Orn = NCCC[C@H](N)C(=O)O; Dab = NCC[C@H](N)C(=O)O; Abu = CC[C@H](N)C(=O)O; Dap = NC[C@H](N)C(=O)O

Legend:
Type in all cases: cell-based
[1] = test system: Acinetobacter baumannii 872842; details: 872842
Summary of the method: (§1)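 MIC in μg/mL, read as absence of visible growth after 18-20 h incubation at 35° C, by standard CLSI microdilution. Peptides tested in two-fold serial dilution in cation-adjusted MH-II broth containing 0.002% (final) Polysorbate 80, against roughly 10^6 CFU/mL inocula.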

[2] = test system: Acinetobacter baumannii DSM 30008; details: DSM 30008
Summary of the method: as §1

[3] = test system: Enterobacter cloacae 848840; details: 848840
Summary of the method: as §1

Escherichia coli 926415 = details: 926415
Summary of the method: as §1

[4] = test system: Escherichia coli ATCC 25922; details: ATCC 25922
Summary of the method: as §1

[5] = test system: Klebsiella pneumoniae 968733; details: 968733
Summary of the method: as §1

[6] = test system: Klebsiella pneumoniae SSI #3010; details: SSI #3010
Summary of the method: as §1

[7] = test system: Pseudomonas aeruginosa ATCC 27853; details: ATCC 27853
Summary of the method: as §1

[8] = test system: human red blood cells (hRBC); assay: Hemolysis; details: red cells of human, 1 h, 200
Summary of the method: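 Percent hemolysis relative to 2% Triton X-100 (100%) and PBS/10% water (0%), from blank-corrected OD540 of diluted supernatants. Peptides tested at 200 μg/mL against 20% (v/v) washed human erythrocytes, 1 h, 37° C, shaking at 300 rpm.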

Row | Compound | MIC [1] | Acinetobacter baumannii DSM 30008 MIC [2] | MIC [3] | MIC (Escherichia coli 926415) | Escherichia coli ATCC 25922 MIC [4] | MIC [5] | Klebsiella pneumoniae SSI #3010 MIC [6] | Pseudomonas aeruginosa ATCC 27853 MIC [7] | Hemolysis at 200 μg/mL [8]
1 | CC(=O)N[C@H](C(=O)N[C@H]1CSSC[C@@H](C(=O)N[C@@H](CO)C(N)=O)NC(=O)[C@H](C(C)C)NC(=O)[C@H](CO)NC(=O)[C@H](Cc2c[nH]c3ccccc23)NC(=O)[C@H](CCC(=O)N[C@@H](CCN)C(=O)N[C@H](C(=O)N[C@@H](CN)C(=O)N[C@H]2CCNC(=O)[C@H]([C@@H](C)O)NC(=O)[C@H](CCN)NC(=O)[C@H](CCN)NC(=O)[C@H](CC(C)C)NC(=O)[C@@H](CC(C)C)NC(=O)[C@H](CCN)NC2=O)[C@@H](C)O)NC(=O)[C@@H](CCN)NC(=O)CNC(=O)[C@H](CCN)NC(=O)[C@H](Cc2ccc(O)cc2)NC1=O)C(C)C [Ex. 360] (I: Ac-VCY[Dab]G[dDab]EWSVCS-NH2 / II: [Dab]T[Dap][Dab][Dab][dL]L[Dab][Dab]T; disulfide I:2-I:11; amide I:7-II:N; lactam II:4-II:C) | 0.125 µg/mL (≈ 0.0528 µM) | 0.0625 µg/mL | 0.125 µg/mL (≈ 0.0528 µM) | 0.25 µg/mL (≈ 0.106 µM) | 0.0625 µg/mL | 0.5 µg/mL (≈ 0.211 µM) | 0.0625 µg/mL | 0.125 µg/mL | 2%
2 | CC(=O)N[C@H](C(=O)N[C@H]1CSSC[C@@H](C(=O)N[C@@H](CO)C(N)=O)NC(=O)[C@H](C(C)C)NC(=O)[C@H](CO)NC(=O)[C@H](Cc2c[nH]c3ccccc23)NC(=O)[C@@H](CCC(=O)N[C@@H](CCN)C(=O)N[C@H](C(=O)N[C@@H](CN)C(=O)N[C@H]2CCNC(=O)[C@H]([C@@H](C)O)NC(=O)[C@H](CCN)NC(=O)[C@H](CCN)NC(=O)[C@H](CC(C)C)NC(=O)[C@@H](CC(C)C)NC(=O)[C@H](CCN)NC2=O)[C@@H](C)O)NC(=O)[C@@H](CCN)NC(=O)[C@H](CCCN)NC(=O)[C@H](CO)NC(=O)[C@H](Cc2ccc(O)cc2)NC1=O)C(C)C [Ex. 366] (I: Ac-VCYS[Orn][dDab][dE]WSVCS-NH2 / II: [Dab]T[Dap][Dab][Dab][dL]L[Dab][Dab]T; disulfide I:2-I:11; amide I:7-II:N; lactam II:4-II:C) | 0.5 µg/mL (≈ 0.207 µM) | 0.25 µg/mL | 8 µg/mL (≈ 3.32 µM) | 0.5 µg/mL (≈ 0.207 µM) | 0.125 µg/mL | 2 µg/mL (≈ 0.829 µM) | 0.25 µg/mL | 0.25 µg/mL | 4%
3 | CC(=O)N[C@H](C(=O)N[C@H]1CSSC[C@@H](C(=O)N[C@@H](C)C(=O)N[C@@H](CO)C(N)=O)NC(=O)[C@H](C(C)C)NC(=O)[C@H](CO)NC(=O)[C@H](Cc2c[nH]c3ccccc23)NC(=O)[C@H](CO)NC(=O)[C@@H](CCN)NC(=O)[C@H](CCC(=O)N[C@@H](CCN)C(=O)N[C@H](C(=O)N[C@@H](CN)C(=O)N[C@H]2CCNC(=O)[C@H]([C@@H](C)O)NC(=O)[C@H](CCN)NC(=O)[C@H](CCN)NC(=O)[C@H](CC(C)C)NC(=O)[C@@H](CC(C)C)NC(=O)[C@H](CCN)NC2=O)[C@@H](C)O)NC(=O)[C@H](CCN)NC(=O)[C@H](Cc2ccc(O)cc2)NC1=O)C(C)C [Ex. 367] (I: Ac-VCY[Dab]E[dDab]SWSVCAS-NH2 / II: [Dab]T[Dap][Dab][Dab][dL]L[Dab][Dab]T; disulfide I:2-I:11; amide I:5-II:N; lactam II:4-II:C) | 0.03125 µg/mL (≈ 0.0127 µM) | 0.007813 µg/mL | 0.0625 µg/mL (≈ 0.0253 µM) | 0.0625 µg/mL (≈ 0.0253 µM) | 0.01562 µg/mL | 0.0625 µg/mL (≈ 0.0253 µM) | 0.03125 µg/mL | 0.0625 µg/mL | <1%
4 | CC[C@@H]1NC(=O)[C@@H](CC(C)C)NC(=O)[C@H](CCN)NC(=O)[C@@H](NC(=O)[C@H](CN)NC(=O)[C@@H](NC(=O)[C@H](CCN)NC(=O)CC[C@@H]2NC(=O)[C@H](CCN)NC(=O)[C@H](Cc3ccc(O)cc3)NC(=O)[C@@H](NC(=O)[C@@H](NC(C)=O)C(C)C)CSSC[C@@H](C(=O)N[C@@H](C)C(=O)N[C@H](CO)C(N)=O)NC(=O)[C@H]([C@@H](C)CC)NC(=O)[C@H](CO)NC(=O)[C@H](Cc3c[nH]c4ccccc34)NC(=O)[C@H](CO)NC(=O)[C@@H](CCN)NC2=O)[C@@H](C)O)CCNC(=O)[C@H]([C@@H](C)O)NC(=O)[C@H](CCN)NC(=O)[C@H](CCN)NC1=O [Ex. 369] (I: Ac-VCY[Dab]E[dDab]SWSICA[dS]-NH2 / II: [Dab]T[Dap][Dab][Dab][dL][Abu][Dab][Dab]T; disulfide I:2-I:11; amide I:5-II:N; lactam II:4-II:C) | 0.03125 µg/mL (≈ 0.0127 µM) | 0.007813 µg/mL | 0.03125 µg/mL (≈ 0.0127 µM) | 0.0625 µg/mL (≈ 0.0254 µM) | 0.01562 µg/mL | 0.0625 µg/mL (≈ 0.0254 µM) | 0.03125 µg/mL | 0.0625 µg/mL | <1%

Now from value to compound, other results behind:

Row | MIC [1] | Acinetobacter baumannii DSM 30008 MIC [2] | MIC [3] | MIC (Escherichia coli 926415) | Escherichia coli ATCC 25922 MIC [4] | MIC [5] | Klebsiella pneumoniae SSI #3010 MIC [6] | Pseudomonas aeruginosa ATCC 27853 MIC [7] | Compound | Hemolysis at 200 μg/mL [8]
5 | 0.125 µg/mL (≈ 0.0521 µM) | 0.0625 µg/mL | 0.125 µg/mL (≈ 0.0521 µM) | 0.25 µg/mL (≈ 0.104 µM) | 0.0625 µg/mL | 0.25 µg/mL (≈ 0.104 µM) | 0.0625 µg/mL | 0.125 µg/mL | CC(=O)N[C@H](C(=O)N[C@H]1CSSC[C@@H](C(=O)N[C@@H](CO)C(N)=O)NC(=O)[C@H](C(C)C)NC(=O)[C@H](CO)NC(=O)[C@H](Cc2c[nH]c3ccccc23)NC(=O)[C@H](CCC(=O)N[C@@H](CCN)C(=O)N[C@H](C(=O)N[C@@H](CN)C(=O)N[C@H]2CCNC(=O)[C@H]([C@@H](C)O)NC(=O)[C@H](CCN)NC(=O)[C@H](CCN)NC(=O)[C@H](CC(C)C)NC(=O)[C@@H](CC(C)C)NC(=O)[C@H](CCN)NC2=O)[C@@H](C)O)NC(=O)[C@@H](CCN)NC(=O)[C@H](CCN)NC(=O)[C@H](CO)NC(=O)[C@H](Cc2ccc(O)cc2)NC1=O)C(C)C [Ex. 356] (I: Ac-VCYS[Dab][dDab]EWSVCS-NH2 / II: [Dab]T[Dap][Dab][Dab][dL]L[Dab][Dab]T; disulfide I:2-I:11; amide I:7-II:N; lactam II:4-II:C) | 2%
6 | 0.25 µg/mL (≈ 0.106 µM) | 0.0625 µg/mL | 0.125 µg/mL (≈ 0.0531 µM) | 0.5 µg/mL (≈ 0.212 µM) | 0.0625 µg/mL | 0.5 µg/mL (≈ 0.212 µM) | 0.125 µg/mL | 0.25 µg/mL | CC(=O)N[C@H](C(=O)N[C@H]1CSSC[C@@H](C(=O)N[C@@H](CO)C(N)=O)NC(=O)[C@H](C(C)C)NC(=O)[C@H](CO)NC(=O)[C@H](Cc2c[nH]c3ccccc23)NC(=O)[C@H](CCC(=O)N[C@@H](CCN)C(=O)N[C@H](C(=O)N[C@@H](CN)C(=O)N[C@H]2CCNC(=O)[C@H]([C@@H](C)O)NC(=O)[C@H](CCN)NC(=O)[C@H](CCN)NC(=O)[C@H](CC(C)C)NC(=O)[C@@H](CC(C)C)NC(=O)[C@H](CCN)NC2=O)[C@@H](C)O)NC(=O)[C@@H](CCN)NC(=O)CNC(=O)[C@H](CO)NC(=O)[C@H](Cc2ccc(O)cc2)NC1=O)C(C)C [Ex. 357] (I: Ac-VCYSG[dDab]EWSVCS-NH2 / II: [Dab]T[Dap][Dab][Dab][dL]L[Dab][Dab]T; disulfide I:2-I:11; amide I:7-II:N; lactam II:4-II:C) | <1%
7 | 0.03125 µg/mL (≈ 0.0126 µM) | 0.007813 µg/mL | 0.03125 µg/mL (≈ 0.0126 µM) | 0.01562 µg/mL (≈ 0.00629 µM) | 0.01562 µg/mL | 0.0625 µg/mL (≈ 0.0252 µM) | 0.03125 µg/mL | 0.0625 µg/mL | CC(=O)N[C@H](C(=O)N[C@H]1CSSC[C@@H](C(=O)N[C@@H](C)C(=O)N[C@@H](C(N)=O)[C@H](C)O)NC(=O)[C@H](C(C)C)NC(=O)[C@H](CO)NC(=O)[C@H](Cc2c[nH]c3ccccc23)NC(=O)[C@H](CO)NC(=O)[C@@H](CCN)NC(=O)[C@H](CCC(=O)N[C@@H](CCN)C(=O)N[C@H](C(=O)N[C@@H](CN)C(=O)N[C@H]2CCNC(=O)[C@H]([C@@H](C)O)NC(=O)[C@H](CCN)NC(=O)[C@H](CCN)NC(=O)[C@H](CC(C)C)NC(=O)[C@@H](CC(C)C)NC(=O)[C@H](CCN)NC2=O)[C@@H](C)O)NC(=O)[C@H](CCN)NC(=O)[C@H](Cc2ccc(O)cc2)NC1=O)C(C)C [Ex. 368] (I: Ac-VCY[Dab]E[dDab]SWSVCA[dT]-NH2 / II: [Dab]T[Dap][Dab][Dab][dL]L[Dab][Dab]T; disulfide I:2-I:11; amide I:5-II:N; lactam II:4-II:C) | 1%
